Reference: a melting point compilation (Tetko et al.)

SMILES	melting point
CC(Cl)C(=O)NC(C)(C)C (stereo unspecified)	84 to 86 °C
CC(C)c1ccc(-n2ccnc2S)cc1	131 to 135 °C
O=S(=O)(Cl)c1cc(Br)c(F)cc1F	34 to 36 °C
CC(C)(C)OC(=O)N1CCC(COS(C)(=O)=O)CC1	84 to 86 °C
Nc1ccc(N2CCCC2=O)cc1	125 to 127 °C
N#Cc1nnc2ccccc2c1Cl	179 to 181 °C
NS(=O)(=O)c1cccc(I)c1	148 to 150 °C
Cc1ccnc(Br)c1N	76 to 78 °C
S=C(c1cn(-c2ccccc2)nc1-c1ccccc1)N1CCCCC1	124 to 126 °C
Cn1nnnc1Sc1ccc(Br)cc1N	148 to 150 °C
CC(C)(C)S(=O)(=O)Cc1cccc(N)c1	175 to 177 °C
OCc1ccccc1Oc1ccc(I)cc1	65 to 67 °C
CC(C)CCNC(=O)C1CCN(C(=O)CCl)CC1	119 to 121 °C
O=C1NC(=O)C(=Cc2ccccc2C(F)(F)F)S1	170 to 172 °C
O=Cc1cc[nH]c1	59 to 61 °C
Cc1cc(Cl)nc(-c2ccncc2)n1	119 to 121 °C
COc1cccc2[nH]cc(CCN)c12	119 to 121 °C
CCN1C(=O)C(=O)c2ccc(Br)cc21	118 to 120 °C
C#CCn1cnc(-c2ccccc2)c1N	126 to 128 °C
CNC(=O)CNC(=S)NN	156 to 158 °C
OC(CC1COCCN1)c1ccco1 (stereo unspecified)	84 to 86 °C
CC(C)c1nc(-c2cccc3ncccc23)n[nH]1	143 to 145 °C
CC(C)(C)NC(=O)CC1(C(=O)O)CCCC1	201 to 203 °C
CCOc1cc2c(cc1CBr)OC(C)C2 (stereo unspecified)	69 to 71 °C
O=C(O)C1CC2(CCCC2)C1	29 to 31 °C

SMILES	melting point
O=c1[nH]cnc2c1CCNC2	251 to 253 °C
Cc1ccc(Oc2ccc(N)cc2)cc1	118 to 122 °C
O=Cc1ccc(-c2ccc([N+](=O)[O-])cc2Br)o1	132 to 136 °C
Nc1ccc2c(cnn2C(F)F)c1	77 to 79 °C
NCCCN1C(=O)NC2(CCCCC2)C1=O	124 to 126 °C
Cc1cc(N)n(C(C)(C)C)n1	66 to 68 °C
NC1=NS(=O)(=O)c2ccccc21	279 to 281 °C
Cc1n[nH]c(C)c1-c1ccccc1N	162 to 164 °C
Nc1ccc(I)cc1Br	83 to 85 °C
Nc1cccc(-c2nnco2)c1	66 to 68 °C
N#Cc1c(F)cccc1Oc1ccc(N)cc1	156 to 158 °C
COCCNc1nnc(S)s1	120 to 122 °C
O=Cc1cnc(N2CCCC2)nc1	118 to 120 °C
OCCNc1ncccn1	76 to 78 °C
Cc1cccn2cc(COc3ccc(F)cc3Cl)nc12	128 to 130 °C
Cc1cc2c(Cl)ncnc2s1	79 to 81 °C
NCc1ccnc(NC2CC2)c1	39 to 41 °C
N#Cc1nc(-c2ccccc2)oc1NN	209 to 211 °C
O=[N+]([O-])c1cc(Br)ccc1I	84 to 86 °C
O=C(O)C12CC3CC(C1)CC(C(F)(F)F)(C3)C2	138 to 140 °C
O=C1C(Br)CCN1c1ccc(Cl)cc1 (stereo unspecified)	83 to 85 °C
CN1CCCN(c2ccc(C#N)cc2Cl)CC1	40 to 42 °C
NC1(c2nn[nH]n2)CCCC1	229 to 231 °C
Nc1ncc(C(O)(C(F)(F)F)C(F)(F)F)s1	184 to 186 °C
Clc1cncc(-n2cncn2)n1	109 to 111 °C

SMILES	melting point
O=C(CCl)Nc1ccc(S(=O)(=O)N2CCCC2)cc1	185 to 187 °C
Nc1ncc(Cl)s1	90 to 92 °C
COC(=O)c1cc(NS(=O)(=O)c2cccs2)cc(NS(=O)(=O)c2cccs2)c1	251 to 253 °C
O=C1CCC2SCCSC12 (stereo unspecified)	81 to 83 °C
CC(CN)N1CCN(c2ccccc2)CC1 (stereo unspecified)	91 to 93 °C
Sc1nnc(NC2CCCCC2)s1	144 to 146 °C
CC(C)NS(=O)(=O)Cc1ccc(C#N)cc1	158 to 160 °C
Nc1cc(-c2cccc([N+](=O)[O-])c2)n[nH]1	137 to 139 °C
CCCOc1ccc(C=O)c(OCCC)c1	58 to 60 °C
COc1ccc(Oc2ccc(Cl)cc2N)cc1	47 to 49 °C
NS(=O)(=O)C1CCOCC1	129 to 131 °C
CCCN(CCC)C(=O)C1C2C=CC(C2)C1C(=O)O (stereo unspecified)	113 to 115 °C
Cc1cc(C(=O)CCl)c(C)s1	53 to 57 °C
NC(=O)CNCc1ccc(OCc2ccccc2)cc1	140 to 142 °C
CCNC(=O)NC1CCC(O)CC1 (stereo unspecified)	36 to 39 °C
CCCCNc1c(N)n(Cc2ccccc2)c(=O)[nH]c1=O	117 to 119 °C
[N-]=[N+]=Nc1ccc(I)cc1	33 to 35 °C
COc1cc(C)c(S(=O)(=O)Cl)cc1OC	73 to 75 °C
NC(=S)Nc1ccc2c(c1)CCC2	179 to 181 °C
CCOC(=O)c1sc2nc(CN3CCCCC3)nc(Cl)c2c1C	105 to 107 °C
Nc1ccc(CNC(=O)c2ccc(Br)cc2)cc1	173 to 175 °C
Nc1ccc(S(=O)(=O)Nc2ccc(F)c(Cl)c2)cc1	173 to 175 °C
O=C1c2ccccc2C(=O)N1CC1CO1 (stereo unspecified)	98 to 100 °C
CS(=O)(=O)NCCN=C=S	163 to 165 °C
NCc1cccc(NC(=O)c2ccncc2)c1	128 to 130 °C

Other lines, results leading:

melting point	SMILES
167 to 169 °C	CC(N)c1ccccc1NS(=O)(=O)c1cccs1 (stereo unspecified)
236 to 238 °C	O=C(O)c1cc2c(s1)-c1ccccc1OC2
98 to 100 °C	Cc1ccc(N2N=C(C(=O)O)NCC2=O)cc1
188 to 190 °C	CC(=O)c1cccc(S(=O)(=O)NCC(=O)O)c1
203 to 205 °C	Nc1ccc(C(=O)O)cc1CCCC(=O)O
56 to 61 °C	COc1ccc(Cl)cc1CO
117 to 119 °C	Cc1noc(C)c1CC(=O)O
156 to 158 °C	CC(C)Oc1ccc(/C=C/C(=O)O)cc1
105 to 107 °C	CCOC(=O)c1c(N)sc2ccccc12
155 to 157 °C	COc1cc(NC(=O)C2CCCCC2)c(C(=O)O)cc1OC
75 to 77 °C	CC(=O)NCc1cccc(Br)c1
96 to 98 °C	CC(=O)c1nc2cc(Cl)ccc2n1C
103 to 105 °C	O=C(CCl)Nc1ccc(Cl)c(Cl)c1
209 to 211 °C	CN1CC(C(=O)O)Cc2ccccc21 (stereo unspecified)
183 to 185 °C	Cc1c(Br)cc(C(=O)O)cc1[N+](=O)[O-]
163 to 167 °C	NC(=O)Nc1cccc(Br)c1
78 to 80 °C	CN(C)S(=O)(=O)Nc1ccccc1Br
89 to 91 °C	CCCC(C#N)NC(=O)c1ccccc1 (stereo unspecified)
189 to 191 °C	CC(=O)Nc1ccc(Br)c(C(=O)O)n1
129 to 131 °C	NC(=NO)c1ccc(Br)o1
184 to 186 °C	Cc1ccc(N2CC(C(=O)O)CC2=O)cc1 (stereo unspecified)
172 to 174 °C	O=C(O)Cn1ccc([N+](=O)[O-])n1
66 to 68 °C	CC(C)c1ccc(SCC(=O)O)cc1
143 to 145 °C	NC(=O)CCN(C(=O)CCl)c1ccccc1

melting point	SMILES
145 to 147 °C	Nc1nc(-c2cc(F)ccc2F)cs1
194 to 196 °C	CSc1ccsc1C(=O)O
258 to 260 °C	O=C(O)c1cc(Br)c2c(c1)OCCO2
110 to 112 °C	CN(CC(=O)O)C(=O)c1ccc(Br)o1
180 to 182 °C	CC1=CSC(=C(C#N)N=O)N1
67 to 69 °C	C[C@H](N)C(N)=O
124 to 126 °C	CCOC(=O)Nc1ccc(O)cc1
156 to 158 °C	COc1cc(C(=O)O)cc(Cl)c1OC(C)C
88 to 92 °C	COC(=O)c1sc(S(=O)(=O)Cl)c(C(=O)OC)c1C
164 to 166 °C	CC(C)(C)OC(=O)Nc1ccc(Cc2nc(C(=O)O)cs2)cc1
141 to 143 °C	Nc1nnc(SCc2cccs2)s1
116 to 118 °C	CCOC(=O)C(=O)c1nc2ccccc2n1C
88 to 90 °C	COC(=O)COc1cc(N)c(Cl)cc1C
89 to 91 °C	CCOc1cccc(CC(=O)O)c1
52 to 54 °C	O=Cc1cccc(Cl)c1O
247 to 249 °C	CNC(C(=O)O)c1cc(F)c(F)c(F)c1 (stereo unspecified)
107 to 109 °C	CCc1ccccc1OCC(=O)NN
89 to 91 °C	O=C(O)CC(=O)c1ccc(O)cc1
147 to 149 °C	Nc1ccc(Cl)cc1C(=O)NC1CC1
131 to 133 °C	CC(C)(C)OC(=O)Nc1ccc(O)cc1
60 to 62 °C	COC(=O)c1cc(-c2ccccc2)nc2ccccc12
134 to 136 °C	COC(=O)c1cccc(OCC(N)=NO)c1
93 to 95 °C	CCOC(=O)c1c(-c2ccc(C)s2)csc1N
224 to 226 °C	Cc1nc(-c2ncccn2)sc1C(=O)O

melting point	SMILES
144 to 146 °C	CC(C)(C)C(=O)NCCc1ccc(S(N)(=O)=O)s1
94 to 96 °C	CCOC(=O)c1cc(C)nc(-c2ccccc2)n1
149 to 151 °C	CCNc1ccc(S(=O)(=O)C(F)(F)F)cc1N
218 to 220 °C	CS(=O)(=O)Cc1c(C(=O)O)oc2ccccc12
95 to 97 °C	CC(=O)Nc1ccc(C)c(S(=O)(=O)Cl)c1
122 to 124 °C	CCNC(=O)Nc1cccc(N)c1
177 to 179 °C	Cc1nc(/C=C/C(=O)O)cs1
214 to 216 °C	O=C(O)c1ccc(N2CCCc3ccccc32)cc1
125 to 127 °C	NC(=O)CCCOc1ccc(F)cc1
113 to 115 °C	O=C(O)CSCc1cc(-c2cccs2)on1
237 to 239 °C	Cc1noc2nc(-c3cc(F)ccc3F)cc(C(=O)O)c12
225 to 227 °C	O=C(O)c1cc(-c2ccccc2Cl)[nH]n1
115 to 117 °C	CNC(=O)c1cc(Oc2ccccc2N)ccn1
142 to 144 °C	CC(=O)c1cccc(S(=O)(=O)N2CCOCC2)c1
175 to 177 °C	O=C(O)c1cc(-c2cccc(Cl)c2)on1
60 to 64 °C	O=C(O)CCCNC(=O)OCc1ccccc1
137 to 139 °C	COCCNS(=O)(=O)c1ccc(C)c(C(=O)O)c1
78 to 82 °C	Cc1cc(C)c(C(=O)O)c(Cl)n1
251 to 253 °C	Cc1ccc(-c2cc(C(=O)O)[nH]n2)cc1
296 to 298 °C	CSc1nccn1-c1ccc(C(=O)O)cc1
110 to 112 °C	O=C(Cc1ccccc1)c1nc2ccccc2s1
150 to 152 °C	O=C(Cn1ccnc1)c1ccc(F)cc1
129 to 131 °C	CC(Oc1cccc(O)c1)C(N)=O (stereo unspecified)
